Data taken from article PMC7447632, “Highly functionalized β-lactams and 2-ketopiperazines as TRPM8 antagonists with antiallodynic activity” (Scientific Reports, 2020).
Values belong to the molecule of their own block, whether it stands above or below them.

What was measured:
[1] = target: T1, rat TRPM8 channel (Rattus norvegicus, UniProt Q8R455); assay: Ca2+ microfluorometry, menthol-induced Ca2+ influx in HEK293 cells expressing rat TRPM8; format: cell-based; details: 100 µM menthol, HEK-rTRPM8; for % Blockade 5 µM: 5 µM compound; for % Blockade 50 µM: 50 µM compound
T1 construct: expressed in transfected cells; host or cells: HEK293 (stably transfected)
Method: The ability to inhibit menthol-induced Ca^2+ intracellular influx into the cytosol on HEK293 cells heterologously expressing the rat TRPM8 channel was measured and compared to that of AMTB, a well-known TRPM8 antagonist. Representative recordings of fluorescence obtained in microfluorometry experiments for selected compounds are in Supplementary Fig. S3.
(§1) Human embryonic kidney cell line (HEK) stably transfected with rTRPM8 or h-TRPV1 were used as previously described. Briefly, cells were seeded in 96-well plates at a cell density of 30,000 cells 2 days before treatment. Buffer used was HBBS (in mM): 138 NaCl, 5.33 KCl, 1.26 CaCl2, 0.5 MgCl-6H2O, 0.4 MgSO4-7H2O, 4 NaHCO3 0.44 KH2PO4, 0.3 Na2HPO4, pH 7.4. The day of treatment the medium was replaced with 100 µL of the dye loading solution Fluo-4 NW supplemented with probenecid 2.5 mM. After incubation, plates were transferred to a fluorescence plate reader (Polastar BMG). In the experimental protocol, the baseline fluorescence was recorded ([…]) for 3 cycles. After, vehicle, compound at different concentrations and the corresponding antagonist, 10 µM AMTB for TRPM8 or 10 µM Ruthenium Red for TRPV1 were added to the well. Fluorescence intensity was recorded during 7 cycles more. Finally, the agonist 100 µM menthol for TRPM8 or 1 µM capsaicin for TRPV1 was added and fluorescence intensity was recorded during 10 cycles more.
The degree of inhibition of TRPM8 channel gating was calculated by comparison to calcium increase signal elicited by test substances and menthol at 100 µM. Decrease of menthol signal was expressed as percentage of inhibition (%). All data are expressed as mean ± standard deviation (SD). Each condition was assessed by triplicate (n = 3) in 3 independent experiments (N = 3). Z-factor was calculated in each assay using the following equation: […]. In all the experiments Z-factor was ≥ 0.5. To calculate IC50, normalized responses (%) versus log [µM] were adjusted to a non-linear fit with variable slope, a four-parameter dose–response curve following curve Y = 100/(1 + 10^((Log IC50-X)*HillSlope)) where […].

[2] = target: T2, hTRPV1 channels (Homo sapiens, UniProt Q8NER1); assay: Ca2+ microfluorometry in HEK cells expressing hTRPV1 (capsaicin); format: cell-based; details: 1 µM capsaicin; for TRPV1 Blockade (%) 5 µM: 5 µM compound; for TRPV1 Blockade (%) 50 µM: 50 µM compound
T2 construct: expressed in transfected cells; host or cells: HEK (stably transfected)
Method: β-Lactam and 2-ketopiperazine derivatives were also assayed for their activity in cell expressing hTRPV1 channels. No significant antagonist activity was measured for any derivatives within both chemotypes (Supplementary Tables S1, S2, and Fig. S3), indicating their selectivity for TRPM8 channels.
as §1
Table S1. Activity at hTRPV1 of β–lactams derived from phenylalaninol conjugates
Compd. Isomer Isomer TRPV1 Blockade (%)
Table S2. Activity at hTRPV1 of 2-ketopiperazines derived from phenylalaninol

[3] = tested on: A549 (lung carcinoma, NSCLC); assay: SRB cytotoxicity assay, A549; format: cell-based; details: 72 h, SRB; for TGI A549: total growth inhibition; for TGI A549 / CC50: unit inferred; for GI50 / CC50: Homo sapiens, A549; for CC50: read-out: LC50 A549
Method: (§2) Human tumor cell lines used in this study were purchased from the ATCC. A-549 (CCL-185), lung carcinoma; HT-29 (HTB-38), colorectal adenocarcinoma; MDA-MB-231 (HTB-26), breast adenocarcinoma; PSN1, pancreas adenocarcinoma.
(§3) All cell lines were maintained in DMEM (Dulbecco’s Modified Eagle's Medium) culture medium supplemented with 10% FBS (Fetal Bovine Serum), 100 Units/mL penicillin/streptomycin at 37 °C, 5% CO2 and 95% humidity.
(§4) Triplicate cultures were incubated for 72 h in the presence or absence of test compounds in dose–response curves (10 concentrations, typically ranging from 10 to 0.0026 µg/mL). A colorimetric assay using sulforhodamine B (SRB) was adapted for quantitative measurement of cell growth and cytotoxicity. A more detailed information on this assay is provides in the supplementary information. GI50 is the compound concentration that produces 50% inhibition on cell growth as compared to control cells.
(§5) In vitro bioassays for the detection of antitumor activity
(§6) The aim of this assay is to evaluate the in vitro cytostatic (ability to delay or arrest tumor cell growth) or cytotoxic (ability to kill tumor cells) activity of the samples […]
(§7) Name Nº ATCC Species Tissue Characteristics
(§8) A549 CCL-185 human lung lung carcinoma (NSCLC)
(§9) HT29 HTB-38 human colon colorectal adenocarcinoma
(§10) MDA-MB-231 HTB-26 human breast breast adenocarcinoma
(§11) PSN1 CRM-CRL-3211 human pancreas pancreas adenocarcinoma […]
(§12) A colorimetric assay, using Sulforhodamine B (SRB) reaction has been adapted to provide a quantitative measurement of cell growth and viability (following the technique described by Skehan et al. J. Natl. Cancer Inst. 1990, 82, 1107-1112 […]
(§13) This form of assay employs 96-well cell culture microplates following the standards of the American National Standards Institute and the Society for Laboratory […]
(§14) used in this study were obtained from the American Type Culture Collection (ATCC) and derive from different types of human cancer.
(§15) A549, HT29, MDA-MB-231 and PSN1 cells were maintained in Dulbecco’s
(§16) Modified Eagle Medium (DMEM) supplemented with 10% Fetal Bovine Serum (FBS), 2mM L-glutamine, 100 U/mL penicillin, and 100 U/mL streptomycin at 37 °C, 5% CO2 and 98% humidity. For the experiments, cells were harvested from subconfluent cultures using trypsinization and resuspended in fresh medium before counting and […]
(§17) A549, HT29, MDA-MB-231 and PSN1 cells were seeded in 96 well microtiter plates, at 5000 cells per well in aliquots of 150 µL, and allowed to attach to the plate surface for 18 hours (overnight) in drug free medium. After that, one control (untreated) plate of each cell line was fixed (as described below) and used for time zero reference value. Culture plates were then treated with test compounds (50 µL aliquots of 4X stock […]
(§18) solutions in complete culture medium plus 4% DMSO) using ten 2/5 serial dilutions (concentrations ranging from 10 to 0.003 µg/mL) and triplicate cultures (1% final concentration in DMSO). After 72 hours treatment, the antitumor effect was measured by using the SRB methodology: Briefly, cells were washed twice with PBS, fixed for 15 min in 1% glutaraldehyde solution at room temperature, rinsed twice in PBS, and stained in 0.4% SRB solution for 30 min at room temperature. Cells were then rinsed several times with 1% acetic acid solution and air-dried at room temperature. SRB was then extracted in 10 mM trizma base solution and the absorbance measured in an automated spectrophotometric plate reader at 490 nm.
(§19) Effects on cell growth and survival were estimated by applying the NCI algorithm (Boyd MR and Paull KD. Drug Dev. Res. 1995, 34, 91-109, DOI:10.1002/ddr.430340203). The values obtained in triplicate cultures were fitted by nonlinear regression to a four-parameters logistic curve by nonlinear regression analysis. . Using the absorbance measurements [time zero, (Tz), control growth, (C), and test growth in the presence of drug at the ten concentration levels (Ti)], the […]

[4] = tested on: HT29 (colorectal adenocarcinoma); assay: SRB cytotoxicity assay, HT29; format: cell-based; details: 72 h, SRB; for TGI HT29: total growth inhibition; for TGI HT29 / CC50: unit inferred; for GI50 / CC50: Homo sapiens, HT-29; for CC50: read-out: LC50 HT29
Method: as §2, §3, §4, §5, §6, §7, §8, §9, §10, §11, §12, §13, §14, §15, §16, §17, §18, §19

[5] = tested on: MDA-MB-231 (breast adenocarcinoma); assay: SRB cytotoxicity assay, MDA-MB-231; format: cell-based; details: 72 h, SRB; for TGI MDA-MB-231: total growth inhibition; for TGI MDA-MB-231 / CC50: unit inferred; for GI50 / CC50: Homo sapiens, MDA-MB-231; for CC50: read-out: LC50 MDA-MB-231
Method: as §2, §3, §4, §5, §6, §7, §8, §9, §10, §11, §12, §13, §14, §15, §16, §17, §18, §19

[6] = tested on: PSN1 (pancreas adenocarcinoma); assay: SRB cytotoxicity assay, PSN1; format: cell-based; details: 72 h, SRB; for TGI PSN1: total growth inhibition; for TGI PSN1 / CC50: unit inferred; for GI50 / CC50: Homo sapiens, PSN1; for CC50: read-out: LC50 PSN1
Method: as §2, §3, §4, §5, §6, §7, §8, §9, §10, §11, §12, §13, §14, §15, §16, §17, §18, §19

[7] = tested on: TRPM8; details: cited from earlier work; for IC50: Figure 1, literature values; for EC50: Figure 1, literature value

T2 sequence (Q8NER1 whole entry): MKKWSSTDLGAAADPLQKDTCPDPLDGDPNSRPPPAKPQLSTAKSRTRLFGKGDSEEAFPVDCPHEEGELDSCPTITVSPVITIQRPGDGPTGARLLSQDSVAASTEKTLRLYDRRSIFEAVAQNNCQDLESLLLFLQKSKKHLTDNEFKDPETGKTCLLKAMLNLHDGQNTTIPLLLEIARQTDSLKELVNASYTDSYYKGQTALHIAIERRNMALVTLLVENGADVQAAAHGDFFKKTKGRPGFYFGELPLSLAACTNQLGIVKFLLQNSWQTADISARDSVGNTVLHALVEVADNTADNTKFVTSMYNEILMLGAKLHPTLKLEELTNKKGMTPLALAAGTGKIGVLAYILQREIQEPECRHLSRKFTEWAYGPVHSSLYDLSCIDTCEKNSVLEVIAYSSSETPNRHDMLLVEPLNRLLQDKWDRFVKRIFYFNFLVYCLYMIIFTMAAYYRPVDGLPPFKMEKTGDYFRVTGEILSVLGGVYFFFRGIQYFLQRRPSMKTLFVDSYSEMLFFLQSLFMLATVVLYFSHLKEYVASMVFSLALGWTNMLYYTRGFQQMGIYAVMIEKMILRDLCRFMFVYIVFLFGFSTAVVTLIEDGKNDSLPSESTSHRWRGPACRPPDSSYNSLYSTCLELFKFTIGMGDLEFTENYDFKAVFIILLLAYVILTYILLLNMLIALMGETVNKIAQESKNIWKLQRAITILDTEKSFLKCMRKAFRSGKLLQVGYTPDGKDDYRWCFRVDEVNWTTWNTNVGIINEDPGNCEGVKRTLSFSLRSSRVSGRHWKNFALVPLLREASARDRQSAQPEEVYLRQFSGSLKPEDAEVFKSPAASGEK
T1 sequence (Q8R455 whole entry): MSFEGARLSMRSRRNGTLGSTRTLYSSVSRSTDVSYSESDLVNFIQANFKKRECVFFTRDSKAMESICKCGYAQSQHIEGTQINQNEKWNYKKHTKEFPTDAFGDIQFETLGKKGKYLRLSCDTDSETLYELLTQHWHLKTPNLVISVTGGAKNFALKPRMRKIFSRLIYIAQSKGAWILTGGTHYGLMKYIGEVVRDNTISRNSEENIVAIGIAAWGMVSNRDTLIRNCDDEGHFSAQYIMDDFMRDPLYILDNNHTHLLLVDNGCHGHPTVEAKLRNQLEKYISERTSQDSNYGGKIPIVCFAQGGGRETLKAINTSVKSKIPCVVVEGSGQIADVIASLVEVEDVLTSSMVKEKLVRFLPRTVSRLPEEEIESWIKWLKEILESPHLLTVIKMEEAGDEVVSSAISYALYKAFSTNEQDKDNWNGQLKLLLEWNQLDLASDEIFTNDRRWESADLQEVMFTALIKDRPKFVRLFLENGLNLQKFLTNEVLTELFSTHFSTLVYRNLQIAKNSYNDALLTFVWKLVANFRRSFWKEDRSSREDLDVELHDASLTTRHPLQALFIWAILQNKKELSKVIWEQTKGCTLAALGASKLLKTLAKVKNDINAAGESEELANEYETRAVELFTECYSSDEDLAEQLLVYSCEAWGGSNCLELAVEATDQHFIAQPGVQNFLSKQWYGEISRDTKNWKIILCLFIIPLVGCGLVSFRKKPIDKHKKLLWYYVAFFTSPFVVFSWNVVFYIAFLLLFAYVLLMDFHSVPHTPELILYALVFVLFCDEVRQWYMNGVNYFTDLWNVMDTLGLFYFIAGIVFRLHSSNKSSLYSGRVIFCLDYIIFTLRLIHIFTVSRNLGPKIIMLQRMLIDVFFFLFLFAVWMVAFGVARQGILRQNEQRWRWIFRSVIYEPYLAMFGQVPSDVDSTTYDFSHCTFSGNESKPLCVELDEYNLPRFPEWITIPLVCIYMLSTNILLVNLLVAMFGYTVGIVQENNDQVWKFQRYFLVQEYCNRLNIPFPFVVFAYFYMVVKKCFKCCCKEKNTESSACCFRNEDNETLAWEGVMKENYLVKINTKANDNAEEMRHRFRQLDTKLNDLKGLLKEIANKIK

- % Blockade 5 µM [1]: 101.4 ± 6.1%
- % Blockade 50 µM [1]: 106 ± 5.06%
- IC50 ([1]; Ca2+ microfluorometry): 1.8 ± 1.9 µM
- TRPV1 Blockade (%) 5 µM [2]: 6.3±2.1%
- TRPV1 Blockade (%) 50 µM [2]: 7.8±4.1%
SMILES: O=C(OCc1ccccc1)C(Cc1ccccc1)N1C[C@@H](Cc2ccccc2)N(C(=O)OCc2ccccc2)CC1=O (stereo partly shown) [Compound 15ab]
- TGI A549 [3]: > 17.8 µM
- GI50 [3]: > 17.8 µM
- CC50 [3]: > 17.8 µM
- TGI HT29 [4]: > 17.8 µM
- GI50 [4]: > 17.8 µM
- CC50 [4]: > 17.8 µM
- TGI MDA-MB-231 [5]: > 17.8 µM
- GI50 [5]: > 17.8 µM
- CC50 [5]: > 17.8 µM
- TGI PSN1 [6]: > 17.8 µM
- GI50 [6]: 6.4 µM
- CC50 [6]: > 17.8 µM

- % Blockade 5 µM [1]: 48.9 ± 6.2%
- % Blockade 50 µM [1]: 102.1 ± 7.7%
- TRPV1 Blockade (%) 5 µM [2]: 7.2±3.8%
- TRPV1 Blockade (%) 50 µM [2]: 8.1±3.4%
SMILES: O=C(OCc1ccccc1)C(Cc1ccccc1)N1C[C@H](Cc2ccccc2)N(C(=O)OCc2ccccc2)CC1=O (stereo partly shown) [Compound 13ab]
- TGI A549 [3]: > 17.8 µM
- GI50 [3]: > 17.8 µM
- CC50 [3]: > 17.8 µM
- TGI HT29 [4]: > 17.8 µM
- GI50 [4]: > 17.8 µM
- CC50 [4]: > 17.8 µM
- TGI MDA-MB-231 [5]: > 17.8 µM
- GI50 [5]: > 17.8 µM
- CC50 [5]: > 17.8 µM
- TGI PSN1 [6]: > 17.8 µM
- GI50 [6]: > 17.8 µM
- CC50 [6]: > 17.8 µM

SMILES: Cc1cccc(COc2ccccc2C(=O)N(CCCN)Cc2cccs2)c1 [AMTB]
- IC50 [7]: 0.16 µM

SMILES: CC1CCC(C(C)C)C(O)C1 (stereo not shown) [Menthol]
- EC50 [7]: 200 to 500 µM

SMILES: C[C@H](c1ccc(F)cc1)N(Cc1cccc(C(=O)O)c1)C(=O)c1cnc2ccccc2c1 [PF-05105679]
- IC50 [7]: 0.181 µM

SMILES: O=C(O)c1ccc(S(=O)(=O)N(Cc2ccc(OC(F)(F)F)cc2)c2ncc(C(F)(F)F)cc2Cl)cc1 [RQ 00203078]
- IC50 [7]: 0.0083 µM

SMILES: C[C@H](c1cc(F)cc(F)c1)N(C(=O)c1ccccc1)[C@@H](C(N)=O)c1ccccc1 [KPR-2579]
- IC50 [7]: 0.008 µM

SMILES: COC(=O)[C@H](Cc1c[nH]c2ccccc12)N(Cc1ccccc1)Cc1ccccc1 [Bn2-Trp-OMe]
- IC50 [7]: 0.0002 µM

SMILES: O=C1NC(c2cccc([N+](=O)[O-])c2)=CCN1c1ccccc1O [Icilin]
- EC50 [7]: 0.005 µM
